Reference: publication PMC9409043, “Serotonin 5-HT6 Receptor Ligands and Butyrylcholinesterase Inhibitors Displaying Antioxidant Activity—Design, Synthesis and Biological Evaluation of Multifunctional Agents against Alzheimer’s Disease” (International Journal of Molecular Sciences, 2022)
Several values for one entry are separate records, joined by “and”; a condition that tells them apart may be missing. Equal values may be shown once.

Experiments:
human 5-HT6 receptor = target: T1, human 5-HT6 receptor (Homo sapiens, UniProt P50406); test: 5-HT6 receptor radioligand binding assay ([3H]-LSD, CHO-K1 membranes)
T1 construct: purchased PerkinElmer; host or cells: CHO-K1 cells, stably transfected (membrane preparation)
T1 sequence (P50406 whole entry): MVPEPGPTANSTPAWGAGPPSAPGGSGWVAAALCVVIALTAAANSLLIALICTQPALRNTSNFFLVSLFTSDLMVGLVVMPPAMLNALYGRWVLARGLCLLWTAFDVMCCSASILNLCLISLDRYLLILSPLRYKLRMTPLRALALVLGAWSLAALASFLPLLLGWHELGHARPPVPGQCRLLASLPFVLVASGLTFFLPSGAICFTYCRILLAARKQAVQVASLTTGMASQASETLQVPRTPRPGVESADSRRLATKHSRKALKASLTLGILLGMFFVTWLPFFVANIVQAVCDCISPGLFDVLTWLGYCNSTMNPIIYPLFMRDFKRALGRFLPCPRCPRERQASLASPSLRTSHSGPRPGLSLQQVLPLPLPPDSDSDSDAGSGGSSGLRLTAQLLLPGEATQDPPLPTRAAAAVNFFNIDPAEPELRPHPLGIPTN
Procedure: 5-HT6R binding affinity and cholinesterase (AChE/BuChE) inhibitory activity. We evaluated the pharmacological properties of the final compounds 12–19 in vitro according to the previously described, well-established protocols. Their affinities for recombinant human 5-HT6 receptors (h5-HT6R) were tested in a radioligand binding assay and the inhibitory potencies against human recombinant AChE (hAChE) and BuChE isolated from human plasma (hBuChE) in the spectrophotometric Ellman’s assay. […].
We prepared 10 mM of stock solutions of tested compounds in DMSO. Serial dilutions of compounds were prepared in a 96-well microplate in assay buffers using the automated pipetting system epMotion 5070 (Eppendorf). Each compound was tested in 8 concentrations from 10^−5 to 10^−12 M (final concentration).
The radioligand binding assay was performed using membranes from CHO-K1 cells stably transfected with the human 5-HT6 receptor (PerkinElmer) according to the previously described procedure. All assays were carried out in duplicates. We prepared 50 µL working solution of the tested compounds, 50 µL [^3H]-LSD (final concentration 2.5 nM) and 150 µL diluted membranes (15 µg protein per well) in assay buffer (50 mM Tris, pH 7.4, 10 mM MgCl2, 0.1 mM EDTA) and transferred them to polypropylene 96-well microplates using a 96-well pipetting station Rainin Liquidator (MettlerToledo). Methiothepin (10 μM) was used to define nonspecific binding. The microplate was covered with sealing tape, mixed and incubated for 60 min at 27 °C. The reaction was terminated by rapid filtration through GF/B filter mate presoaked with 0.5% polyethyleneimine for 30 min. Ten rapid washes with 200 µL 50 mM Tris buffer (4 °C, pH 7.4) were performed using the automated harvester system Harvester-96 MACH III FM (Tomtec). The filter mates were dried at 37 °C in a forced air fan incubator and then solid scintillator MeltiLex was melted on filter mates at 90 °C for 5 min. Radioactivity was counted in MicroBeta2 scintillation counter (PerkinElmer). Data were fitted to a one-site curve-fitting equation with Prism 6 (GraphPad Software) and Ki values were estimated from the Cheng−Prusoff equation.

[1] = target: T2, human recombinant AChE (hAChE) (Homo sapiens, UniProt P22303); test: biochemical; settings: for IC50: mean ± SEM of at least three experiments
T2 construct: purchased Sigma-Aldrich (Steinheim, Germany)
T2 sequence (P22303 32-614): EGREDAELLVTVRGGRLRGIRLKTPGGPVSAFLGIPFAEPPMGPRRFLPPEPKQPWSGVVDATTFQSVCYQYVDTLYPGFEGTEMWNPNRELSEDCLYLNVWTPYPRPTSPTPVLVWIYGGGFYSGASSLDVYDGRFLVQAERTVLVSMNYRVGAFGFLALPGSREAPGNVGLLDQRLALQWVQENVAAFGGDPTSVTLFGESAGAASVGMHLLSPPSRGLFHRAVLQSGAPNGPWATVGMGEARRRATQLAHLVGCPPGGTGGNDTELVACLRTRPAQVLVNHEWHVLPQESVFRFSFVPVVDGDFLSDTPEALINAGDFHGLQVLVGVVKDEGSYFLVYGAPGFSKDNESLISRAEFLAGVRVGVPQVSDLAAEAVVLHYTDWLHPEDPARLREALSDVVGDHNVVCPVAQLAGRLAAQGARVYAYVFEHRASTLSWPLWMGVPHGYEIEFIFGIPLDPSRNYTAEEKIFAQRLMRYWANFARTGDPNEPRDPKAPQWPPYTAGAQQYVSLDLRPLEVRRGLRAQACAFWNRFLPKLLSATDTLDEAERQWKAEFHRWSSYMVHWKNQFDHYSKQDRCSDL
Procedure: (§1) 5-HT6R binding affinity and cholinesterase (AChE/BuChE) inhibitory activity. […] Their affinities for recombinant human 5-HT6 receptors (h5-HT6R) were tested in a radioligand binding assay and the inhibitory potencies against human recombinant AChE (hAChE) and BuChE isolated from human plasma (hBuChE) in the spectrophotometric Ellman’s assay.
(§2) The assay was based on spectrophotometric Ellman’s method and was performed in 96-well microplates with the reagents purchased from Sigma-Aldrich (Steinheim, Germany) according to the previously described procedure. hBuChE was kindly donated by Vivonics (Bedford, MA, USA). […] After 5 minutes of the enzymatic reaction, the changes in absorbance were measured at 412 nm, using a microplate reader (SPECTROstar Nano; BMG Labtech, Ortenberg, Germany). First, compounds were tested at the screening concentration of 10 µM. Based on the equation 100 − (S/B) × 100 (where S and B were the respective enzyme activities with and without the test sample, respectively) the percentage inhibition of each enzyme for each compound was calculated. […] The IC50 values were calculated using nonlinear regression (GraphPad Prism 5; GraphPad Software, San Diego, CA, USA) by plotting the residual enzyme activities against the applied inhibitor concentration. […] All experiments were performed in triplicate.

[2] = target: T3, BuChE isolated from human plasma (hBuChE) (Homo sapiens, UniProt P06276); test: biochemical; assay type: biochemical; settings: for IC50: mean ± SEM of at least three experiments
T3 construct: BuChE isolated from human plasma (hBuChE); tissue Vivonics (Bedford, MA, USA), donated; host or cells: human plasma
T3 sequence (P06276 29-602): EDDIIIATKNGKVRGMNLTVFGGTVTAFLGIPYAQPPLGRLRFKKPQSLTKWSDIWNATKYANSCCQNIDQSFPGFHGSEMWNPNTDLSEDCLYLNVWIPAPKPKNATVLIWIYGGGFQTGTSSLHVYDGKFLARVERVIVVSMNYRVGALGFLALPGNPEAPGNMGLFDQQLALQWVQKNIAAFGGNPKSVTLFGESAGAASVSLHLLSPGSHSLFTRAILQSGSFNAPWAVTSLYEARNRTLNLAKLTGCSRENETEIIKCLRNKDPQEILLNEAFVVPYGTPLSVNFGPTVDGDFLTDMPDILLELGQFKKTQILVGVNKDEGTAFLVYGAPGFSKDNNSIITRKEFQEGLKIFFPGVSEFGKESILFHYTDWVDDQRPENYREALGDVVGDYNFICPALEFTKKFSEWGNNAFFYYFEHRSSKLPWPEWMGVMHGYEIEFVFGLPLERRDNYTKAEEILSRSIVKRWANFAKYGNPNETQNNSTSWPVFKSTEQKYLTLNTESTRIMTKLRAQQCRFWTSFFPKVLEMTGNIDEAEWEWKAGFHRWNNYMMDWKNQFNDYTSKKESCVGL
Procedure: as §1, §2

[3] = ABTS free radical scavenging assay
Excerpt: Antioxidant activity. As mentioned before, oxidative stress is one of the components of AD pathomechanism and is characterised by an imbalance in the production of ROS. One of the mechanisms by which antioxidants reduce the concentration of ROS and therefore prevent or slow the cell damage caused by free radicals is scavenging them. Thus, we tested the scavenging ability of compounds 12–19 in the spectrophotometric ABTS assay that we used before. In this assay, the ability of compounds to scavenge ABTS^• radicals, which are generated from 2,2’-azino-bis(3-ethylbenzothiazoline-6-sulphonic acid) (ABTS), is measured. We tested the compounds at three concentrations: 30, 75 and 150 μM after 5, 30 and 60 min of incubation using Trolox, a water-soluble vitamin E analogue, as a reference (Table S1 in Supporting information).
The spectrophotometric ABTS assay was performed in 96-well microplates with the reagents purchased from Sigma-Aldrich (Steinheim, Germany) according to the previously described procedure. Stock solutions of the tested compounds (6.4 mM) and reagents were prepared in DMSO and water, respectively. 2,2′-Azino-bis(3-ethylbenzothiazoline-6-sulfonic acid) free radical (ABTS^•) was prepared by mixing the stock solution of ABTS (7 mM) and […] (2.45 mM) in ratio 1:1. The mixture was kept in the dark at 4 °C for 16 h. The obtained solution of (ABTS^•) was diluted with water 20 times. Then, the test compound or water or mixture of DMSO/water in the appropriate ratio (0.02 mL) was added to ABTS^• solution (0.18 mL). The three concentrations of the test compounds and Trolox were tested in triplicate: 0.15, 0.075 and 0.03 mM. Changes in absorbance were measured at 734 nm after 5, 30 and 60 min, using a microplate reader (SPECTROstar Nano; BMG Labtech, Ortenberg, Germany). Based on the equation ((A0 − A)/A0) × 100% (where A0 and A were the absorbances without and with the test compound, respectively) the percentage of free radical scavenging activity was calculated. The results are presented as mean ± SD.

[4] = system: patients with moderate Alzheimer’s dementia; settings: phase II, adjunct to cholinesterase inhibitors, moderate Alzheimer’s dementia ref 14, 15; cited from earlier work
[5] = Metabolic stability in human liver microsomes; assay type: in vitro ADME; settings: for HLMs % Left: human, 2 h, pH 7.4
Procedure: Metabolic stability. […] For detailed results, including UPLC chromatograms and MS spectra, see the Supporting information (Figures S1–S16).
The metabolic stability was evaluated by incubation of compounds with human liver microsomes (Sigma-Aldrich, St. Louis, MO, USA) in 10 mM Tris–HCl buffer (pH 7.4) at 37 °C for 120 min in the presence of NADPH Regeneration System (Promega, Madison, WI, USA). The percentage of the remaining substrate and the most probable metabolic pathways were estimated by UPLC-MS analyses of the reaction mixtures.

[6] = Metabolic stability in mouse liver microsomes; assay type: in vitro ADME; settings: 2 h, pH 7.4
CYP2D6 = target: T4, CYP2D6 (Homo sapiens, UniProt P10635); test: CYP P450-Glo luminescence assay, CYP2D6; assay type: in vitro ADME
T4 construct: purchased Promega, Madison, WI, USA
T4 sequence (P10635 whole entry): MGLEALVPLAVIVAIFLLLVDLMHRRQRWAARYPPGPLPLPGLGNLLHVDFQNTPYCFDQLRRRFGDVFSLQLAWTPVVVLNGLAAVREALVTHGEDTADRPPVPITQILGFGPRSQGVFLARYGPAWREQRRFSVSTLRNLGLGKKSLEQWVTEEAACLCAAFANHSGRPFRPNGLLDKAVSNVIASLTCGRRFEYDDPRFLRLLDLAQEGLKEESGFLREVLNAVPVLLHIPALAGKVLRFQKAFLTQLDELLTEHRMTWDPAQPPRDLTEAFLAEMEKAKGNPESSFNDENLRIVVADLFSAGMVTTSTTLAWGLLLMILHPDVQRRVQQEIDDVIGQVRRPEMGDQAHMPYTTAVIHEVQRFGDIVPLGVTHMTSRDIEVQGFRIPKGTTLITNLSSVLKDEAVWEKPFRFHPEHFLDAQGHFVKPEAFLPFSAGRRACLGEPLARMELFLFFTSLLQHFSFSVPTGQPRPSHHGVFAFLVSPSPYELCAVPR
Excerpt: Influence on CYP3A4 and CYP2D6 activity. Possible drug–drug interactions (DDIs) are an important issue for elderly patients, who are usually on multiple medications. They may result, among other things, from the interactions (inhibition or activation) of the cytochrome P450 isoenzymes, especially CYP3A4 and CYP2D6, which play the most significant role in drugs’ biotransformation. Therefore, to predict the potential influence of the studied compounds (14, 16 and 19) on the metabolism of other drugs, we used the CYP450 inhibition luminescence assay (Promega). […]. […] […]. […] […].
The influence on CYP 3A4 and 2D6 activity was estimated by respective luminescent CYP P450-Glo™ assay (Promega®, Madison, WI, USA). The compounds were tested in the concentration range of 0.1–25 µM. The results were compared to the respective reference CYP inhibitors: ketoconazole and quinidine.

Compound	Ki (human 5-HT6 receptor)	IC50 [1]	IC50 [2]	% of ABTS• reduction ± SD ([3]; 30 µM, 5 min)	% of ABTS• reduction ± SD ([3]; 30 µM, 30 min)	% of ABTS• reduction ± SD ([3]; 30 µM, 60 min)	% of ABTS• reduction ± SD ([3]; 75 µM, 5 min)	% of ABTS• reduction ± SD ([3]; 75 µM, 30 min)	% of ABTS• reduction ± SD ([3]; 75 µM, 60 min)	% of ABTS• reduction ± SD ([3]; 150 µM, 5 min)	% of ABTS• reduction ± SD ([3]; 150 µM, 30 min)	% of ABTS• reduction ± SD ([3]; 150 µM, 60 min)	other results
O=S(=O)(c1ccccc1)n1ccc2c(OCCNCCC3CCN(Cc4ccccc4)CC3)cccc21 [Compound 13, 2-(1-Benzylpiperidin-4-yl)-N-(2-((1-(phenylsulfonyl)-1H-indol-4-yl)oxy)ethyl)ethan-1-amine]	17 ± 2 nM	2260 ± 91 nM	1110 ± 31 nM	5±1%	5±1%	6±1%	9±1%	11±1%	13±1%	20±0%	29±1%	34±1%	
O=S(=O)(c1ccccc1)c1cnc2c(N3CCNCC3)cccc2c1 [intepirdine]													effects on cognition [4]: positive effects on cognition
Cc1c(C)c2c(c(C)c1O)CCC(C)(C(=O)O)O2 (centres unmarked) [Trolox, reference compound]				59±2%	59±2%	59±2% and 59%	100±0%	100±0%	100%	100±0%	100±0%	100±0% and 100%	
O=c1[nH]c2c(OCCNCC3CCN(Cc4ccccc4)CC3)cccc2n1Cc1ccccc1 [Compound 17, 1-Benzyl-4-(2-(((1-benzylpiperidin-4-yl)methyl)amino)ethoxy)-1,3-dihydro-2H-benzo[d]imidazol-2-one]	136 ± 22 nM			8±2%	14±3%	18±4%	12±2%	22±2%	27±1%	19±2%	32±2%	39±2%	inhibition at 10 µM ([1]; 10 µM concentration): 39.5%; inhibition at 10 µM ([2]; 10 µM concentration): 44.3%
O=S(=O)(c1ccccc1)N1CCc2c(OCCNCCCC3CCN(Cc4ccccc4)CC3)cccc21 [Compound 16, 3-(1-Benzylpiperidin-4-yl)-N-(2-((1-(phenylsulfonyl)indolin-4-yl)oxy)ethyl)propan-1-amine]	598 ± 19 nM	821 ± 14 nM	487 ± 12 nM	7±0%	7±1%	7±1%	7±2%	9±2%	11±3%	10±0%	19±1%	24±1%	main metabolic pathway [5]: oxidative deamination; HLMs % Left [5]: 84.40%; MLMs % Left [6]: 84.48%; inhibition at 0.1 µM (CYP2D6; human, CYP2D6 enzyme in the luminescent P450-Glo assay (Promega), 0.1 µM): ~20%
O=c1[nH]c2c(OCCNCCCC3CCN(Cc4ccccc4)CC3)cccc2n1Cc1ccccc1 [Compound 19, 1-Benzyl-4-(2-((3-(1-benzylpiperidin-4-yl)propyl)amino)ethoxy)-1,3-dihydro-2H-benzo[d]imidazol-2-one]	480 ± 48 nM	544 ± 15 nM	613 ± 11 nM	10±0%	17±0%	22±1%	14±1%	24±2%	30±2%	25±4%	37±5%	43±4%	main metabolic pathway [5]: oxidative deamination; HLMs % Left [5]: 94.00%; MLMs % Left [6]: 79.38%; influence on the activity of CYP2D6 (CYP2D6; 0.1 µM): did not influence the activity of CYP2D6; influence on the activity of CYP2D6 (CYP2D6; 1 µM): CYP2D6-activating effect
O=S(=O)(c1ccccc1)n1ccc2c(OCCNCC3CCN(Cc4ccccc4)CC3)cccc21 [Compound 12, N-((1-Benzylpiperidin-4-yl)methyl)-2-((1-(phenylsulfonyl)-1H-indol-4-yl)oxy)ethan-1-amine]	21 ± 1 nM	3150 ± 81 nM	2300 nM and 2320 nM	8±1%	9±0%	10±0%	13±0%	19±0%	24±1%	20±3%	30±3%	39±4%	
Fc1ccc2c(CCNCc3cccc(OCC(F)(F)C(F)F)c3)c[nH]c2c1 [Idalopirdine]													effects on cognition [4]: positive effects on cognition
